Data: the supplement of paper PMC11451515

Tests used:
Details in all cases: 48 h
NOMO1 [1] = assay: AUC of viability dose-response curve (% viability x log10 dose units); higher = less sensitive
Outline: (§1)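 Leukemia cells adapted to each medium were seeded in 1536-well plates (500 or 1000 cells/well). They were dosed with library compounds in DMSO at 11 threefold doses, 47 μM to 0.79 nM, for 48 h at 37°C. CellTiter-Glo One luminescence was normalised per plate to DMSO and cell-free wells. Area under the curve was integrated by trapezoidal rule over log10 doses on a four-parameter log-logistic fit; curves exceeding full viability were scaled and curves failing quality control removed.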

SEM cells [2] = assay: as above
Outline: as §1

P12-Ichikawa [3] = assay: as above
Outline: as §1

NOMO1 [4] = assay: cell viability relative to DMSO control; higher = less cytotoxic
Outline: (§2)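 NOMO1 or SEM (500 cells/well) or P12-Ichikawa (1000 cells/well) leukemia cells were adapted for at least four passages in each medium. They were seeded in 1536-well plates (5 μl) and pin-dosed with library compounds in DMSO over an 11-point threefold series, 47 μM to 0.79 nM. CellTiter-Glo One luminescence was read after 48 h at 37°C. Viability is the per-plate percentage relative to DMSO wells, with cell-free wells as background.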

SEM cells [5] = assay: as above
Outline: as §2

P12-Ichikawa [6] = assay: as above
Outline: as §2

OC(=O)\C1=C\N(C2=CC=C(F)C=C2)C3=C(C=C(F)C(=C3)N4CCNCC4)C1=O
AUC of viability dose-response curve
Details	NOMO1 [1]	P12-Ichikawa [3]	SEM cells [2]
HPLM + 10% dialyzed FBS	447	457	446
RPMI 5 mM glucose + 10% FBS	475	464	476
RPMI 5 mM glucose + 10% dialyzed FBS	451	452	448

cell viability [%]
Details	NOMO1 [4]	P12-Ichikawa [6]	SEM cells [5]
HPLM + 10% dialyzed FBS, 0.000781 µM	113	121	89.5
HPLM + 10% dialyzed FBS, 0.00234 µM	99.1	116	101
HPLM + 10% dialyzed FBS, 0.00702 µM	116	112	100
HPLM + 10% dialyzed FBS, 0.0211 µM	111	124	101
HPLM + 10% dialyzed FBS, 0.0632 µM	129	124	105
HPLM + 10% dialyzed FBS, 0.19 µM	122	117	90.7
HPLM + 10% dialyzed FBS, 0.569 µM	114	114	82.4
HPLM + 10% dialyzed FBS, 1.71 µM	105	115	89.4
HPLM + 10% dialyzed FBS, 5.12 µM	101	108	86.4
HPLM + 10% dialyzed FBS, 15.4 µM	95.6	103	90
HPLM + 10% dialyzed FBS, 46.1 µM	98.6	91	93.9
RPMI 5 mM glucose + 10% FBS, 0.000781 µM	103	126	101
RPMI 5 mM glucose + 10% FBS, 0.00234 µM	99.1	118	108
RPMI 5 mM glucose + 10% FBS, 0.00702 µM	110	118	120
RPMI 5 mM glucose + 10% FBS, 0.0211 µM	101	120	92.1
RPMI 5 mM glucose + 10% FBS, 0.0632 µM	104	117	114
RPMI 5 mM glucose + 10% FBS, 0.19 µM	104	113	112
RPMI 5 mM glucose + 10% FBS, 0.569 µM	117	112	97.2
RPMI 5 mM glucose + 10% FBS, 1.71 µM	104	121	95.7
RPMI 5 mM glucose + 10% FBS, 5.12 µM	115	117	110
RPMI 5 mM glucose + 10% FBS, 15.4 µM	98.4	99.1	113
RPMI 5 mM glucose + 10% FBS, 46.1 µM	94.6	92.1	103
RPMI 5 mM glucose + 10% dialyzed FBS, 0.000781 µM	107	119	103
RPMI 5 mM glucose + 10% dialyzed FBS, 0.00234 µM	106	111	103
RPMI 5 mM glucose + 10% dialyzed FBS, 0.00702 µM	116	115	112
RPMI 5 mM glucose + 10% dialyzed FBS, 0.0211 µM	105	115	125
RPMI 5 mM glucose + 10% dialyzed FBS, 0.0632 µM	106	104	107
RPMI 5 mM glucose + 10% dialyzed FBS, 0.19 µM	113	114	111
RPMI 5 mM glucose + 10% dialyzed FBS, 0.569 µM	133	111	87.5
RPMI 5 mM glucose + 10% dialyzed FBS, 1.71 µM	100	102	113
RPMI 5 mM glucose + 10% dialyzed FBS, 5.12 µM	105	108	95.3
RPMI 5 mM glucose + 10% dialyzed FBS, 15.4 µM	104	91.5	95.1
RPMI 5 mM glucose + 10% dialyzed FBS, 46.1 µM	85.8	87.2	87.3
